Common to all, as to format: functional, cell-based
One test concerns DU-145. In words: Cytotoxicity against human DU145 cells.
In another test the test system is HT-29. In words: Cytotoxicity against human HT-29 cells.
Another test has as its system SK-MEL-28. In words: Cytotoxicity against human SK-MEL-28 cells.
Another test deals with A549. Briefly: Cytotoxicity against human A549 cells.
The next test relates to P388. In words: Cytotoxicity against mouse P388 cells.

SMILES strings stand for the structures.

For the compound `COC(=O)c1cccc2c3c(n(O)c12)C(O)(C=O)C=CC3=O` (stereo not given) [COPROVERDINE], the IC50 in the test on DU-145 is 300 nM; in the test on HT-29 it was 300 nM; in the test with SK-MEL-28, 300 nM; with A549, 300 nM; with P388, 1600 nM.

The term IC50 denotes the midpoint of a concentration-inhibition curve.

The values are drawn from ChEMBL document CHEMBL1150648, “Coproverdine, a novel, cytotoxic marine alkaloid from a new zealand ascidian” (J Nat Prod, 2002).
